Test results taken from patent US20060094031A1, “Alpha-L-arabinofuranosidase histochemical reporter gene assay” (Stowers Institute for Medical Research, priority 2004, published 2006).
“Also recorded” adds a separate entry of the source.

Legend:
[1] = molecular target: T1, α-L-arabinofuranosidase (S. lividans abfA gene) expressed in NIH 3T3 cells (Streptomyces lividans, UniProt P53627); assay: histochemical (in situ) detection of abfA expression in transfected mammalian cells with chromogenic substrate; type: cell-based; conditions: for color of cells expressing abfA after staining with the substrate: NIH 3T3 cells transfected with CMV-abfA, fixed 30 hours later, substrate 0.02% in lacZ detection protocol
T1 construct: expressed in transfected cells; host or cells: NIH 3T3 cells transfected with CMV-abfA (pcDNA3 backbone)
T1 sequence (P53627 1-662): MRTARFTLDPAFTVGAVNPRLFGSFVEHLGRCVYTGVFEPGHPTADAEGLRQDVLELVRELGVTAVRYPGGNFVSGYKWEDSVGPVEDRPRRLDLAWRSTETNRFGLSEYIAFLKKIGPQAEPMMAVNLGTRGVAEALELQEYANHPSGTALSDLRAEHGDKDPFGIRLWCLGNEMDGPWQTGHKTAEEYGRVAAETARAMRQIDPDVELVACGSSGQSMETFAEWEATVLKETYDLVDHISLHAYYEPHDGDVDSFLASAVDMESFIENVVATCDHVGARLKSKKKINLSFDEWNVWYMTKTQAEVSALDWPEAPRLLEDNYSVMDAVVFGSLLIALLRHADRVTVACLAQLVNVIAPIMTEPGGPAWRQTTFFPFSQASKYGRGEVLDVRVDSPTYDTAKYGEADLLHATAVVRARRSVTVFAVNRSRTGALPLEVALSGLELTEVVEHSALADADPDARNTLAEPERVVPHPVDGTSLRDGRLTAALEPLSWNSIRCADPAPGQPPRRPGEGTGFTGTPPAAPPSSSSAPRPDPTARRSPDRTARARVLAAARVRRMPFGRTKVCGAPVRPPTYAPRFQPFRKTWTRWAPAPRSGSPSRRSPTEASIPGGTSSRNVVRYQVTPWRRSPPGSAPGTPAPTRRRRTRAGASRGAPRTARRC
Experimental: (§1) FIG. 1 depicts a schematic of the CMV abfA expression vector. […] NIH 3T3 cells were transfected with CMV-abfA and 30 hours later were fixed with 2% formaldehyde, 0.2% glutaraldehyde for 5 minutes and then processed for histochemical detection of abfA expression using a standard protocol for lacZ detection (5), but substituting Z-ara (0.02%) for X-gal. The synthesis for Z-ara is described in Example 3. Just like X-gal, Z-ara is a colorless water-soluable chromogen that forms an insoluable blue precipitate upon hydrolysis. […] Alternative β-galactosidase substrates to X-gal, 6-chloro-3-indolyl-β-D-galactopyranaside (“Red-gal,” Research Organics, Cleveland, Ohio, USA) and 5-bromo-6-chloro-3-indolyl-β-D-galactopyranoside (“Magenta-gal,” BioSynth AG, Switzerland), allow LacZ^+ cells to appear red instead of blue and thus easily distinguishable from Z-ara positive cells.
One feature of the Z-ara substrate is that the 5-bromo-3-indoloxyl-derived final product has birefringent properties.
(§2) To determine whether α-L-arabinofuranosidase and β-galactosidase could be detected both in the same cell, NHI 3T3 cells were co-transfected with CMV-abfA and with proBGN (7), a plasmid encoding the lacZ gene tagged with a nuclear localization signal. […] One day after transfection cells were fixed followed by in situ visualization of β-galactosidase and α-L-arabinofuranosidase activities by incubation with 0.02% Magenta-gal and 0.02% Z-ara, respectively. Imaging was with a Leica DMR microscope mounted with an Optronics Magnafire digital camera.

[2] = system: β-galactosidase (lacZ) expressed in NIH 3T3 cells; conditions: for color of cells expressing lacZ after staining with the substrate: histochemical staining
Experimental: as §1, §2

[3] = solubility of the chromogen in water; type: physicochemical; conditions: unhydrolysed chromogen; forms insoluable blue precipitate upon hydrolysis

Compound	subcellular location of staining in abfA-expressing cells ([1]; NIH 3T3, CMV-abfA, FIG. 2(A))	appearance of stained AbfA+ cells under polarized light ([1]; NIH 3T3, CMV-abfA, polarized light, FIG. 2(B))	color of cells expressing abfA after staining with the substrate [1]	staining from abfA expression in co-transfected cells (dual detection) ([1]; NIH 3T3 co-transfected with CMV-abfA and proBGN, one day after transfection, 0.02% substrate, FIGS. 2(C), 2(D))	color of cells expressing lacZ after staining with the substrate [2]	solubility in water [3]	staining from lacZ expression in co-transfected cells (dual detection) ([2]; NIH 3T3 co-transfected with CMV-abfA and proBGN (nuclear-localizing β-galactosidase), one day after transfection, 0.02% substrate, FIGS. 2(C), 2(D))
OC[C@H]1O[C@@H](Oc2c[nH]c3ccc(Br)cc23)C(O)C1O (stereo partly drawn) [Z-ara, 5-bromo-3-indolyl-α-arabinofuranoside]	predominantly cytoplasmic	distinct yellow birefringence	dark blue	blue cytoplasm	remain colorless	water-soluable	
OC[C@H]1O[C@@H](Oc2c[nH]c3ccc(Br)c(Cl)c23)[C@H](O)[C@@H](O)[C@H]1O [X-gal, 5-bromo-4-chloro-3-indolyl-β-D-galactosidase]			no color change; also recorded: no blue staining			water-soluable	
OC[C@H]1O[C@@H](Oc2c[nH]c3cc(Cl)ccc23)[C@H](O)[C@@H](O)[C@H]1O [Red-gal, 6-chloro-3-indolyl-β-D-galactopyranaside]					red		
5-bromo-6-chloro-3-indolyl-β-D-galactopyranoside [Magenta-gal]					red		red nucleus
